Assay results: PMC11677692, “Analysis of Thiodiphenol in Rat Urine as a Biomarker of Exposure to Temephos” (Journal of Xenobiotics, 2024)
Several values for one entry are separate records, joined by “and”; a condition that tells them apart may be missing. Equal entries are not always repeated. Where two headings read alike, the source gives them in different places.

Experiments:
[1] = Urinary excretion kinetics of temephos metabolites after a single oral dose of temephos; format: in vivo, adult male Wistar rats; settings: for Tmax / k el / half-life: male, Wistar, rat, po; for Tmax / k el / half-life / parent compound in urine: 300 mg/kg; for parent compound in urine: urine samples with and without enzyme hydrolysis, single oral dose 300 mg/kg
Description: Animals were individually housed in acrylic metabolism cages for the collection of urine for 8:16 h cycles (inside and outside the cage) for their adaptation during 8 d before treatment. Animals were orally administered with a single dose of temephos (300 mg/kg) emulsified with saline solution (0.9% NaCl). Urine was collected at intervals of 0–8, 8–16, 16–24, 24–48, 60–72, 84–96, 108–120, 132–144, 156–168, 228–240, and 324–336 h. Urine samples were collected and immediately centrifuged at 1600× g for 5 min at 4 °C (Eppendorf 5804R, Hamburg, Germany) and stored at −20 °C until processed for analysis.
(§1) Temephos urinary metabolites were enzymatically deconjugated, according to Cruz-Hurtado et al., with some modifications. Briefly, 200 µL of urine and 2000 IU of β-glucuronidase/sulfatase were added to a 0.5 M sodium acetate buffer at pH 5 to reach a final volume of 1 mL. The mixture was incubated at 50 °C in a water bath for an hour. To determine the optimal concentration of deconjugated temephos metabolites in the enzymatic hydrolysis assay, the concentration of β-glucuronidase/sulfatase was assessed from 250 to 4000 IU/mL. The enzymatic reaction was stopped by adding 10 mL of methylene chloride and cooling at room temperature; the mixture was vortexed for 1 min and then centrifuged at 1600× g for 15 min at room temperature. The organic phase was collected, and another residue extraction was performed using 10 mL of diethyl ether. Both supernatants were pooled and dried using anhydrous sodium sulfate. The solvent evaporated under a nitrogen current. The extracts were stored at −20 °C until analysis by HPLC-DAD. Extracts were dissolved in 200 µL of acetonitrile immediately before analysis. Urinary levels of temephos metabolites were adjusted by creatinine, which was determined using a commercial kit from Randox (CR510, Randox Laboratories Ltd., Crumlin, UK).
Temephos and its metabolites were analyzed by injecting urinary extracts into a liquid chromatograph equipped with a quaternary pump, autosampler, degasser, and UV-Vis Diode-Array detector (Agilent 1200, Agilent Technologies, Palo Alto, CA, USA). A ZORBAX Eclipse XDB C-18 column (4.6 × 150 mm, 5 µm) was used (Agilent Technologies, Deerfield, IL, USA). The detector wavelength was set at 254 nm, the reference wavelength was 550 nm, and the mobile phase was modified from Verdín-Betancourt et al.; it consisted of methanol (A), acetonitrile (B), and water (C), with initial solvent conditions of 27% A, 8% B, and 65% C at a rate of 1 mL/min at 25 °C. After injecting the sample (with different volumes), a 2.5 min linear gradient change was applied to achieve 23.5% A, 12.5% B, and 64% C, which was maintained for 1 min, followed by a second 2.5 min linear gradient change to 18% A, 18% B, and 64% C. Afterwards, another 4 min linear gradient change was applied to reach 20% A, 30% B, and 50% C. This condition was maintained for 2 min. Then, a fourth gradient change was applied, achieving 70% A, 25% B, and 5% C. In the end, the initial conditions were re-established to 27% A, 8% B, and 65% C. The column was equilibrated for 2 min before the next injection. The identity of temephos and its metabolites were confirmed by their retention time (tret) and UV spectra of standards. The concentrations of temephos, TDP, TDP-SO, and BPS were determined using calibration graphs of each compound. The concentration of the non-identified metabolite (NIM) was estimated using the Tem-dox-SO calibration graph due to their similarity in the UV spectrum and tret.
The urinary elimination constant (KElim-U) to determine the half-life of elimination (t1/2 Elim-U) for TDP, BPS, and NIMs was estimated from the slope of the curves in the Rate of Excretion plots (log-linear Rate of excretion (ΔU/Δt) versus mid-point time). […]

[2] = Enzymatic hydrolysis (β-glucuronidase/sulfatase) of urine of temephos-treated rats, HPLC-DAD; format: in vitro ADME, rat; settings: 50 °C, 1 h, vs non-hydrolyzed urine
Description: as §1, with “Both supernatants were pooled and dried using anhydrous sodium sulfate. The solvent evaporated under a nitrogen current. The extracts were stored at −20 °C until analysis by HPLC-DAD. Extracts were dissolved in 200 µL of acetonitrile immediately before analysis.” left out
Temephos and its metabolites were analyzed by injecting urinary extracts into a liquid chromatograph equipped with a quaternary pump, autosampler, degasser, and UV-Vis Diode-Array detector (Agilent 1200, Agilent Technologies, Palo Alto, CA, USA). […] The concentrations of temephos, TDP, TDP-SO, and BPS were determined using calibration graphs of each compound. […]

[3] = urine, male adult rats, single oral dose of temephos 300 mg/kg
[4] = urine, urine, male adult rats, single oral dose of temephos 300 mg/kg, read-out: KElim-U 2nd Phase (converted)
[5] = urine, urine, male adult rats, single oral dose of temephos 300 mg/kg, read-out: t1/2 Elim-U 2nd Phase (converted)
[6] = urine, rats, single oral dose of temephos 300 mg/kg

SMILES | Tmax [1, 3] [h] | k el [1, 4] [s⁻¹] | half-life [1, 5] [h] | half-life ([1]; urine, urine, rats, single oral dose of temephos 300 mg/kg, read-out: t1/2 Elim-U (monophasic decline, one-compartment model) (converted)) [h] | AUC0–∞ [1, 3] | Cmax-U [1, 3] | time after which detection in urine was difficult [1, 6] [h] | time detected in urine after dosing [1, 6] | increase of level in urine extracts after enzyme hydrolysis [2] | k el ([1]; urine, urine, male adult rats, single oral dose of temephos 300 mg/kg, read-out: KElim-U 1st Phase (converted)) [s⁻¹] | half-life ([1]; urine, urine, male adult rats, single oral dose of temephos 300 mg/kg, read-out: t1/2 Elim-U 1st Phase (converted)) [h] | tmax-U [1, 3] [h] | Cmax fold higher than that of BPS [1, 6] [fold] | Cmax fold higher than that of NIMs [1, 6] [fold] | parent compound in urine [1] | parent compound in urine ([1]; listed as temephos)
O=S(=O)(c1ccc(O)cc1)c1ccc(O)cc1 [BPS, 4,4′-sulfonyldiphenol] | 9 ± 6 | 1.09e-05 | 17.7 | 17.7 | 2455 ± 974 nmol-h/mg Creatinine | 41 ± 16 nmol/mg Creatinine | 48 | 40 h | about 2 fold | – | – | – | – | – | – | –
Oc1ccc(Sc2ccc(O)cc2)cc1 [TDP, 4,4′-thiodiphenol] | 9 | 7.08e-07 | 272 | – | 297,540 ± 76,013 nmol-h/mg Creatinine | 366 nmol/mg Creatinine and 366 ± 115 nmol/mg Creatinine | – | up to 320 h | more than 60 fold | 6.93e-06 | 27.8 | 10 ± 4 | 8.9 | 4.2 | – | –
COP(=S)(OC)Oc1ccc(Sc2ccc(OP(=S)(OC)OC)cc2)cc1 [Temephos, temephos] | – | – | – | – | – | – | – | – | – | – | – | – | – | – | practically undetectable | only traces
